In US20110171321A1, “ELASTOMERIC ARTICLE HAVING A BROAD SPECTRUM ANTIMICROBIAL AGENT AND METHOD OF MAKING” (priority 2008, published 2011):

Tested on: E. coli, E. faecalis, K. pneumoniae, P. aeruginosa, C. albicans, S. aureus, and S. epidermidis
Assay: zone of inhibition (ZOI), control articles in each plate
Type: cell-based
Details: 10 μg disk, values not shown
Source text: Samples were submitted in duplicate for each sterilization process. […] The diameter of each zone is reported in millimeters. […] The control results are not shown.

gentamicin
inhibition by positive control: expected inhibition
